How the values were obtained:
[1] = system: B cell activation in human whole blood; assay: Inhibition of B cell activation in human whole blood (CD69 expression, flow cytometry); type: cell-based; settings: anti-human IgD 30 µg/ml + IL-4 5 ng/ml, 18 hours, CD69-positive CD19-positive B cells, read-out: IC50 values of inhibitory activity against B cell activation in human whole blood
From the text: Test example 2: Inhibitory activity of compounds of the present disclosure against B cell activation in human whole blood • I. Experimental materials and instruments • 1. Human whole blood (internal recruitment) • 2. Goat F(ab')2 anti-human IgD-UNLB (SouthernBiotech, 2032-01) • 3. DPBS (1x) (Gibco, 14190-144) • 4. Recombinant human IL-4 (Peprotech, 200-04) • 5. Brilliant Violet 421™ anti-human CD19 antibody (Biolegend, 302234) • 6. APC anti-human CD69 antibody (Biolegend, 310910) • 7. APC mouse IgG1, κ isotype control antibody (Biolegend, 400120) • 8. eBioscience™ 10X RBC lysis buffer (multi-species) (Thermo, 004300-54) • 9. NEST 96-well deep-well plate (Wuxi NEST Biotechnology Co., Ltd., 503501) • 10. 96-well round-bottom plate (Corning, 3788) • 11. 96-well flat-bottom plate (Corning, 3599) • 12. Attune™ NxT acoustic focusing cytometer (ThermoFisher Scientific, 4.2.0) • 13. Cell incubator (Thermo, Forma steri-cycle i160) • II. Experimental procedure
B cells express the B cell receptor (BCR) complex on their surface. When B cells in human whole blood are induced to activate, they can trigger the downstream signalling pathways of the receptor and express the activation marker CD69. The expression of CD69 in activated B cells was detected by flow cytometry, and the IC50 of the compounds were calculated to evaluate the effects of the compounds on BCR activation.
The test compounds dissolved in 100% DMSO at 20 mM were diluted with 100% DMSO to a concentration of 1 mM, which represents the 200× concentration of the highest compound concentration point in the reaction system. The compounds at this concentration were then subjected to 8-point 4-fold serial dilution with 100% DMSO. The positive control wells were set with 100% DMSO, whereas the negative control wells were set with Remiburtinib at a final concentration of 5 µM. The serially diluted compounds and 100% DMSO were further diluted 10-fold in PBS to achieve the 20× concentration, followed by thorough mixing.
After thorough mixing, the whole blood sample was transferred to a loading reservoir and then dispensed into a 96-well flat-bottom plate at 80 µl per well. The compound dilution was dispensed at 5 µl per well. The 11th column of each row was designated as the negative control well, with 5 µl of 100 µM positive control drug added to each well. After thorough mixing for 5 min, the plate was incubated in a 37°C incubator for 30 min. Human IgD antibody was diluted 1.67-fold with PBS to a concentration of 300 µg/mL, and 10 µl of the diluted solution was added to each well of the culture plate (final concentration: 30 µg/ml). Human IL-4 (stock solution at 50 µg/ml) was diluted 500-fold with PBS to a concentration of 100 ng/mL, and 5 µl of the diluted solution was added to each well of the culture plate (final concentration: 5 ng/ml). After thorough mixing for 5 min, the plate was cultured in a 37°C incubator with 5% CO2 for 18 hours.
Flow cytometry detection: CD69-APC, CD19-BV421 and CD4-APC antibodies, and the isotype control antibodies for CD69-APC were removed from 4°C storage. Each antibody was added at 1 µl per well. After thorough mixing for 5 min, the plate was incubated for 30 min at 4°C (refrigerator) in the dark for staining. The 10X RBC lysis buffer was diluted in water to prepare 1X RBC lysis buffer. Aliquots of 1 ml of the lysis buffer were dispensed into each well of a 96-well deep-well plate in advance. The stained samples were transferred into the deep-well plate containing the lysis buffer for erythrocyte lysis. After completing the transfer of an entire plate, the plate was incubated in the dark for 15-20 min. Upon completion of lysis, the plate was centrifuged at 2000 rpm for 4 min. Each well was washed with 1 ml of PBS. Subsequently, the cells were resuspended in 200 µl of PBS, transferred to a 96-well plate, and washed twice more using the same procedure. The samples were resuspended in 200 µl of PBS per well and then subjected to flow cytometry detection. […]

[2] = target: T1, hERG potassium channels (Homo sapiens, UniProt Q12809); assay: cell-based
T1 sequence (Q12809 whole entry): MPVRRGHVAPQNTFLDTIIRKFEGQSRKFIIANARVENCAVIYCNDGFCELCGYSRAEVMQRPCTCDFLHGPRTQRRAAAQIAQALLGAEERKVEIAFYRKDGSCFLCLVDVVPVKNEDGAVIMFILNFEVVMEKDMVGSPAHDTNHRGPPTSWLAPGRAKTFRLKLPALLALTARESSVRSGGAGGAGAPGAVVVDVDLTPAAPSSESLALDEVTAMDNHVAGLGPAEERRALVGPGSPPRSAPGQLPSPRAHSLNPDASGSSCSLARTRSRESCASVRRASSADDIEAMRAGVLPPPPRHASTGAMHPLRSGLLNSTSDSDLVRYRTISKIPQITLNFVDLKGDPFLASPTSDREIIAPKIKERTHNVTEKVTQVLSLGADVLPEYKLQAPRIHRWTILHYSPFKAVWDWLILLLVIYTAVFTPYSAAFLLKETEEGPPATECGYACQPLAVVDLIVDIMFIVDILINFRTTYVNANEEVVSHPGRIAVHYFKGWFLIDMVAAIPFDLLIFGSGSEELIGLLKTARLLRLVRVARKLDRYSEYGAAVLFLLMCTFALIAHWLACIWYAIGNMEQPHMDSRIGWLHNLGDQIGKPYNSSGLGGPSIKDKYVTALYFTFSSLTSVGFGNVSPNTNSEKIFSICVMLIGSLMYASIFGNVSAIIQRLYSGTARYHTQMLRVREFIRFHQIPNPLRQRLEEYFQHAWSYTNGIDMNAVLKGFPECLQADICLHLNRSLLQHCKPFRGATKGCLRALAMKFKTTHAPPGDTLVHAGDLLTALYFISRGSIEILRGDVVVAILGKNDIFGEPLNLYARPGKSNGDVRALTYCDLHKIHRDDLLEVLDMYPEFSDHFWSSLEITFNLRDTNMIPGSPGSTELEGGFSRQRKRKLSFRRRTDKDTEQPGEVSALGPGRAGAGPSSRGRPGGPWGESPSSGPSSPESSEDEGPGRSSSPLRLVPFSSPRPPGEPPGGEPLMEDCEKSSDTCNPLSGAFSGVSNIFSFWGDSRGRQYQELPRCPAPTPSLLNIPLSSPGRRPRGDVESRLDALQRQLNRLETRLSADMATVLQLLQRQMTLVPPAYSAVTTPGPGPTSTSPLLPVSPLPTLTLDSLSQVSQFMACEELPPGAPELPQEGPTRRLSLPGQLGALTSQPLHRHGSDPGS

[3] = target: T2, BTK recombinant human protein (Homo sapiens, UniProt Q06187); assay: Inhibitory activity against BTK (HTRF KinEASE-TK kit); type: biochemical; settings: 2 nM BTK, 10 µM ATP, 0.5 hours preincubation at 25°C; read-out: IC50 values of inhibitory activity against BTK
T2 construct: purchased Thermo PV3363
T2 sequence (Q06187 whole entry): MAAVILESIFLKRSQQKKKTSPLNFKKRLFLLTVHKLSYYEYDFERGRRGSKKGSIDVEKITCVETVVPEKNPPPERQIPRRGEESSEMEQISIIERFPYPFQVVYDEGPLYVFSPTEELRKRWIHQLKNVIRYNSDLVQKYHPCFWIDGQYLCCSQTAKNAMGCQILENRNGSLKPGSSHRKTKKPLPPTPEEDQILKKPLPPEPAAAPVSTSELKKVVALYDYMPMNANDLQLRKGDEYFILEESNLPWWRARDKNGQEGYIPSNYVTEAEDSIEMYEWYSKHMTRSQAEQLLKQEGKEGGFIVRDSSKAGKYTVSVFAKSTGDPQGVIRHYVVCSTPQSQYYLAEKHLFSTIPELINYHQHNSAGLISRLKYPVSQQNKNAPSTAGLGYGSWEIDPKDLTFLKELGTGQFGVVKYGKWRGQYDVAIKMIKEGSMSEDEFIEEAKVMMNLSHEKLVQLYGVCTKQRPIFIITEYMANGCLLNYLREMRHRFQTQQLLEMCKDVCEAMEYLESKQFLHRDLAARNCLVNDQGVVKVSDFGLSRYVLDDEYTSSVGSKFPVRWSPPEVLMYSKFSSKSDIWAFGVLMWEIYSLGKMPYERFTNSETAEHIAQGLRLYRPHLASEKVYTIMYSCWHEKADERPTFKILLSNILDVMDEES
Description: Test example 1: Inhibitory activity of compounds of the present disclosure against BTK • I. Experimental materials and instruments • 1. BTK recombinant human protein (Thermo, PV3363) • 2. HTRF KinEASE-TK kit (Cisbio, 62TK0PEC) • 3. 1 M MgCl2 (Thermo, AM9530G) • 4. 1 M MnCl2 (Sigma, M1787-100ML) • 5. Adenosine 5'-triphosphate (ATP) (New England Biolabs, P0756L) • 6. DTT 2M (Sangon Biotech, B645939) • 7. Ultrapure water (Invitrogen, 10977-015) • 8. OptiPlate-384, white opaque 384-well microplate (PerkinElmer, 6007290) • 9. 96-well round-bottom plate (Corning, 3788) • 10. Biochemical incubator (Shanghai Boxun Medical & Biological Instruments Co., Ltd., BSP-100) • 11. 15-mL centrifuge tube (Corning) • 12. Benchtop high-speed centrifuge (Changsha Yingtai Instrument Co., Ltd., TD4N) • 13. Multifunctional microplate reader (PerkinElmer, EnVision) • 14. Bravo liquid handling platform (Agilent Technologies, SGC120TH34702) • II. Experimental procedure
The HTRF KinEASE-TK kit is designed to detect changes in BTK enzyme activity based on two technologies, i.e., fluorescence resonance energy transfer and time-resolved fluorescence. The kit is operated in two stages: 1) enzyme reaction stage: the enzyme reaction is initiated by adding ATP, where the enzyme phosphorylates the substrate, and the compounds are then added to competitively bind to BTK against ATP, thereby inhibiting substrate phosphorylation; and 2) detection stage: after the enzyme reaction is complete, a detection reagent is added to terminate the reaction. Different groups on the phosphorylated substrate bind to the energy donor and energy acceptor, respectively, bringing the two into close proximity. During the instrumental readout, the energy donor is excited by an external light source, which enables resonance energy transfer to the proximal energy acceptor. The acceptor, in turn, becomes excited and emits light at a specific wavelength. Thus, changes in enzyme activity can be detected by measuring the signal values, and the inhibition rate of the compounds against the target enzyme can be calculated, thereby evaluating the inhibitory effect of the compounds on BTK enzyme activity.
Preparation of enzyme reaction buffer: 5× Kinase Buffer was diluted 5-fold with ultrapure water, and then the stock solutions of MgCl2, MnCl2 and DTT were added. The final composition of the buffer was as follows: 1× Kinase Buffer, 10 mM MgCl2, 1 mM MnCl2, and 1 mM DTT.
(§1) Preparation of 5 × BTK working solution: The BTK (5.17 µM) stock solution was removed from -20°C storage. Given that the BTK concentration in the enzyme reaction system was 2 nM and the concentration of the 5× working solution was 10 nM, the BTK stock solution was diluted 517-fold with the enzyme reaction buffer according to the volume required for the experiment. The diluted solution was then added to the 384-well plate at 2 µL per well. The plate was placed in a plate spinner and centrifuged at 2000 rpm for 1 minute to bring the liquid to the bottom of the wells.
as §1, with “[…]. Given” for “Preparation of 5 × BTK working solution: The BTK (5.17 µM) stock solution was removed from -20°C storage. Given”, “the SEB” for “the BTK”, “was 50” for “was 2”, “was 250” for “was 10”, “diluted 10-fold” for “diluted 517-fold”
The test compounds dissolved in 100% DMSO at 20 mM were diluted with 100% DMSO to a concentration of 200 µM, which represents the 200× concentration of the highest compound concentration point in the reaction system. The compounds at this concentration were then subjected to 10-point 3-fold serial dilution with 100% DMSO. The positive control wells and negative control wells were set with 100% DMSO. […]

[4] = target: T1, hERG potassium channels; assay: hERG channel inhibition, automated patch-clamp in HEK293-hERG stable transfected cell line; settings: read-out: IC50 values of blocking effects on hERG potassium currents, whole-cell patch-clamp, tail currents

Row | IC50 [1] | IC50 [3] | Structure (SMILES) | IC50 [2] | IC50 [4]
1 | 10 to 100 nM | 1.55 nM | C=CC(=O)N(CCF)CCOc1c(N)ncnc1-c1cc(F)cc(NC(=O)c2ccc3c(c2F)OCC3(C)C)c1C [Example 30, N-(3-(6-amino-5-(2-(N-(2-fluoroethyl)acrylamido)ethoxy)pyrimidin-4-yl)-5-fluoro-2-methylphenyl)-7-fluoro-3,3-dimethyl-2,3-dihydrobenzofuran-6-carboxamide] | 20000 nM | –
2 | – | – | C=C(C)C(=O)NCCOc1c(N)ncnc1-c1cc(F)cc(NC(=O)c2ccc3c(c2F)OC(C)(C)C3)c1C [Example 4, N-(3-(6-amino-5-(2-(N-methacrylamido)ethoxy)pyrimidin-4-yl)-5-fluoro-2-methylphenyl)-7-fluoro-2,2-dimethyl-2,3-dihydrobenzofuran-6-carboxamide] | – | 15500 nM
3 | 10 to 100 nM | 3 nM | C=CC(=O)N(C)CCOc1c(N)ncnc1-c1cc(F)cc(NC(=O)c2ccc3c(c2F)OCC3(C)C)c1C [Example 7, N-(3-(6-amino-5-(2-(N-methacrylamido)ethoxy)pyrimidin-4-yl)-5-fluoro-2-methylphenyl)-7-fluoro-3,3-dimethyl-2,3-dihydrobenzofuran-6-carboxamide] | 17000 nM | –
4 | 10 to 100 nM | 3.78 nM | [2H]C([2H])([2H])N(CCOc1c(N)ncnc1-c1cc(F)cc(NC(=O)c2ccc3c(c2F)OCC32CC2)c1C)C(=O)C=C [Example 18, N-(3-(6-amino-5-(2-(N-(methyl-d3)acrylamido)ethoxy)pyrimidin-4-yl)-5-fluoro-2-methylphenyl)-7-fluoro-2H-spiro[benzofuran-3,1'-cyclopropane]-6-carboxamide] | – | –
5 | 10 to 100 nM | 1.56 nM | C=CC(=O)N1C[C@H](F)C[C@H]1COc1c(N)ncnc1-c1cc(F)cc(NC(=O)c2ccc3c(c2F)OCC3(C)C)c1C [Example 32, N-(3-(5-(((2S,4R)-1-acryloyl-4-fluoropyrrolidin-2-yl)methoxy)-6-aminopyrimidin-4-yl)-5-fluoro-2-methylphenyl)-7-fluoro-3,3-dimethyl-2,3-dihydrobenzofuran-6-carboxamide] | 12000 nM | –
6 | 10 to 100 nM | 2.12 nM | [2H]C([2H])(CN(C)C(=O)C=C)Oc1c(N)ncnc1-c1cc(F)cc(NC(=O)c2ccc3c(c2F)OCC3(C)C)c1C [Example 28, N-(3-(6-amino-5-(2-(N-methacrylamido)ethoxy-1,1-d2)pyrimidin-4-yl)-5-fluoro-2-methylphenyl)-7-fluoro-3,3-dimethyl-2,3-dihydrobenzofuran-6-carboxamide] | 14000 nM | –
7 | 10 to 100 nM | 1.73 nM | C=CC(=O)N(CC)CCOc1c(N)ncnc1-c1cc(F)cc(NC(=O)c2ccc3c(c2F)OCC3(C)C)c1C [Example 29, N-(3-(6-amino-5-(2-(N-ethylacrylamido)ethoxy)pyrimidin-4-yl)-5-fluoro-2-methylphenyl)-7-fluoro-3,3-dimethyl-2,3-dihydrobenzofuran-6-carboxamide] | 16000 nM | –
8 | 10 to 100 nM | 6.2 nM | C=CC(=O)N(C)CCOc1c(N)ncnc1-c1cc(F)cc(NC(=O)c2cc3c(cc2F)C(C)(C)CO3)c1C [Example 8, N-(3-(6-amino-5-(2-(N-methacrylamido)ethoxy)pyrimidin-4-yl)-5-fluoro-2-methylphenyl)-5-fluoro-3,3-dimethyl-2,3-dihydrobenzofuran-6-carboxamide] | 10000 nM | –
9 | 10 to 100 nM | 6.09 nM | C=CC(=O)N(C)CCOc1c(N)ncnc1-c1cc(F)cc(NC(=O)c2cc3c(cc2F)C2(CC3)CC2)c1C [Example 1, N-(3-(6-amino-5-(2-(N-methacrylamido)ethoxy)pyrimidin-4-yl)-5-fluoro-2-methylphenyl)-6'-fluoro-2',3'-dihydrospiro[cyclopropane-1,1'-indene]-5'-carboxamide] | – | –
10 | 10 to 100 nM | 7.52 nM | C=CC(=O)N(C)CCOc1c(N)ncnc1-c1cc(F)cc(NC(=O)c2ccc3c(c2)OCC3(C)C)c1C [Example 27, N-(3-(6-amino-5-(2-(N-methacrylamido)ethoxy)pyrimidin-4-yl)-5-fluoro-2-methylphenyl)-3,3-dimethyl-2,3-dihydrobenzofuran-6-carboxamide] | 12000 nM | –

— patent EP4782437A1, “HETEROARYL COMPOUND, AND PREPARATION METHOD THEREFOR AND USE THEREOF IN MEDICINE” (Jiangsu Hengrui Pharmaceuticals Co., Ltd., priority 2023, dated 2025)
